In PMC3970809, “Spectral characteristics of the mutant form GGBP/H152C of D-glucose/D-galactose-binding protein labeled with fluorescent dye BADAN: influence of external factors” (PeerJ, 2014) one finds Kd data, which are given here for one compound.

The assay concerns the target T1, D-glucose/D-galactose-binding protein (GGBP), mutant form GGBP/H152C labeled with BADAN (Escherichia coli, UniProt P0AEE5, H175C).
T1 construct: gene mglB; GGBP/H152C-BADAN (BADAN linked to Cys 152)
The assay can be described thus: BADAN fluorescence titration (Kd by nonlinear regression); stopped-flow binding kinetics.

T1 sequence (P0AEE5 24-332 H175C limits assumed): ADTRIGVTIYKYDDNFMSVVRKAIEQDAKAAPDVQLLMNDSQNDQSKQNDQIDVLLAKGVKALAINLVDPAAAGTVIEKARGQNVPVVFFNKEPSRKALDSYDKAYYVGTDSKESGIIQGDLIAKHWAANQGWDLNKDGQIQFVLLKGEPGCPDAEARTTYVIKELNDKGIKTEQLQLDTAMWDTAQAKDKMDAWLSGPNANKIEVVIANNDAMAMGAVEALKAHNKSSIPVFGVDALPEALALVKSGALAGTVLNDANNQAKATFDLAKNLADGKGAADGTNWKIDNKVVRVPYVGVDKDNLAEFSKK

Regarding `OC[C@H]1OC(O)[C@H](O)[C@@H](O)[C@@H]1O` (stereo partly shown) [Glc], binding was put at a Kd of 8.5 µM.
